Earlier results in article PMC10590056, “Design and synthesis of cabotegravir derivatives bearing 1,2,3-triazole and evaluation of anti-liver cancer activity” (Frontiers in Pharmacology, 2023).
Like-named read-outs stand apart in the source and are kept apart here.

Tests used:
HepG2 cells = conditions: cited from earlier work
[1] = tested on: mutant lung cancer cells (PC-9); parameters: method as in Mao L. F. et al., 2020; conditions: PC-9, stronger effect than icotinib; ref Mao L. F. et al., 2020; cited from earlier work
[2] = tested on: wild-type lung cancer cells (A549); parameters: method as in Mao L. F. et al., 2020; conditions: A549, stronger effect than icotinib; ref Mao L. F. et al., 2020; cited from earlier work

SMILES: COc1ccc(CN(C(=O)Cn2cc(COc3ccc4c(C)cc(=O)oc4c3)nn2)c2cc(OC)c(OC)c(OC)c2)cc1 [compound 1]
- IC50 (HepG2 cells; ref Fu et al., 2019, read-out: IC50 for the inhibition of HepG2 cells): 1.71 µM

SMILES: C[C@]12CC[C@@H]3c4ccc(O)cc4CC[C@H]3[C@@H]1CC[C@@]2(O)c1cn(CC(=O)c2ccc(Cl)cc2)nn1 [compound 2]
- IC50 (HepG2 cells; ref Queiroz et al., 2019, read-out: IC50 for HepG2 cells): 17.8 µM

SMILES: Cc1c(C(=O)Nc2ccc(Oc3cccc4[nH]ccc34)c(F)c2)nnn1-c1ccc(F)cc1 [compound 3]
- IC50 (HepG2 cells; ref Wang L. et al., 2018, Chen et al., 2022b, read-out: IC50 for HepG2 cells): 2.03 µM

SMILES: O=C(NCc1cn(-c2ccc(I)cc2)nn1)Nc1ccc(Cl)c(C(F)(F)F)c1 [compound 4]
- IC50 (HepG2 cells; ref Chen et al., 2022a, Oekchuae et al., 2022, read-out: IC50 for HepG2 cells): 5.57 µM

SMILES: Clc1cccc(-n2cc(-c3cccc(Nc4ncnc5cc6c(cc45)OCCOCCOCCO6)c3)nn2)c1 [compound 5]
- Inhibitory effect on PC-9 cells [1]: excellent inhibitory effects
- Inhibitory effect on A549 cells [2]: excellent inhibitory effects
